Laboratory results published in patent US12708627B2, “Combination therapy for VAV3 cancer” (Children's Hospital Medical Center, priority 2021, dated 2026).
Where “and” joins values, the source holds several entries; their conditions need not be identical. Equal values may be shown once. Entries after “also recorded” stand apart in the source; their conditions may differ. Read-outs that look alike come from different tables or passages of the source.

What was measured:
RhoA = assay: Active RhoA pull-down with GST-Rhotekin in p190-BCR-ABL1 Ba/F3 cells; type: cell-based; conditions: 3 μM
Excerpt: (§1) GAPDH was used as loading control.

[1] = system: p190-BCR-ABL1 leukemic propagating activity; assay: Serial transplantation of bone marrow from treated leukemic mice into secondary recipients; conditions: 5 weeks post transplantation, 10^6-cell dilution
p190-BCR-ABL1 = p190-BCR-ABL1 (Homo sapiens, UniProt P00519); assay: p190-BCR-ABL1 phosphotyrosine level by immunoprecipitation and immunoblotting; conditions: 3 μM, 4 h, p190-BCR-ABL1-Ba/F3 cells
[2] = system: pPAK1/2 (T423/T402) and pBAD (S136) in p190-BCR-ABL1 expressing Ba/F3 cells; assay: Kinetics of PAK1/2 and BAD dephosphorylation by immunoblot; type: cell-based, murine; conditions: 3 μM, early time points
Experimental: as §1
To determine the kinetics of IODVA1-promoted effector dephosphorylation, Applicant focused on the activity of the RAC pro-survival effectors PAK1/2 and the RAC pro-apoptotic member of the Bcl-2 family, BAD, a mediator of aggressive BCR-ABL1-expressing leukemia^10,11. […] The observed difference in deactivation times, i.e. 15 vs. 5 min, is likely due to the difference and sensitivity of the techniques used to detect the activation state of these proteins, e.g. pull-down followed by immunoblotting vs. direct immunoblotting.

[3] = system: VAV3−/− p190-BCR-ABL1 leukemic cells expressing ΔCH VAV3; assay: VAV3 rescue: cell cycle and colony formation, ΔCH mutant; type: cell-based, murine; conditions: up to 10 μM
Excerpt: (FIG. 5A) Schematic of domain architecture of full-length, ΔCH and GEF-mutant VAV3; calponin-homology (CH), acidic region (Ac), Dbl-homology (DH), pleckstrin-homology (PH), zinc finger (ZF), SRC-homology 2 and 3 (SH2/SH3). Black circle and star indicate Y173 and N369, respectively.
Re-introducing full-length or ΔCH VAV3 results in similar number of colonies as with wild-type BM leukemic cells (black bars, mean of 200.3 and 183.3 vs 188.3, respectively), a 3-fold increase from VAV3^−/− leukemic cells expressing the empty vector (mean=64.3 colonies).
For VAV3 rescue experiments, low density bone marrow cells from wild-type (VAV3^+/+) or VAV3^−/− mice were transduced with bicistronic retroviral vector encoding p190 BCR-ABL1-IRES-YFP and sorted for YFP^+ 48 h post-transduction. Cells were then transduced with lentiviral particles encoding either empty vector, full-length WT or mutant VAV3 (pCDH1-MCS1-EF1-copGFP). […] Cell cycle was analyzed at 18 h post BrdU incorporation.

[4] = system: pVAV3 (pTyr173), pVAV1 (pTyr174) in PDX B-ALL cells; assay: pVAV3, pPAK1, pVAV1 immunoblot of PDX cells ex vivo; type: cell-based, human; conditions: 1 μM, 30 min
Excerpt: In general, pPAK1 followed the same trend.

[5] = system: major wild-type kinases including ABL1 and SRC-like kinases; conditions: cited from earlier work
VAV3 = target: T1, VAV3 (Homo sapiens, UniProt Q9UKW4); assay: biochemical
T1 sequence (Q9UKW4 1-847): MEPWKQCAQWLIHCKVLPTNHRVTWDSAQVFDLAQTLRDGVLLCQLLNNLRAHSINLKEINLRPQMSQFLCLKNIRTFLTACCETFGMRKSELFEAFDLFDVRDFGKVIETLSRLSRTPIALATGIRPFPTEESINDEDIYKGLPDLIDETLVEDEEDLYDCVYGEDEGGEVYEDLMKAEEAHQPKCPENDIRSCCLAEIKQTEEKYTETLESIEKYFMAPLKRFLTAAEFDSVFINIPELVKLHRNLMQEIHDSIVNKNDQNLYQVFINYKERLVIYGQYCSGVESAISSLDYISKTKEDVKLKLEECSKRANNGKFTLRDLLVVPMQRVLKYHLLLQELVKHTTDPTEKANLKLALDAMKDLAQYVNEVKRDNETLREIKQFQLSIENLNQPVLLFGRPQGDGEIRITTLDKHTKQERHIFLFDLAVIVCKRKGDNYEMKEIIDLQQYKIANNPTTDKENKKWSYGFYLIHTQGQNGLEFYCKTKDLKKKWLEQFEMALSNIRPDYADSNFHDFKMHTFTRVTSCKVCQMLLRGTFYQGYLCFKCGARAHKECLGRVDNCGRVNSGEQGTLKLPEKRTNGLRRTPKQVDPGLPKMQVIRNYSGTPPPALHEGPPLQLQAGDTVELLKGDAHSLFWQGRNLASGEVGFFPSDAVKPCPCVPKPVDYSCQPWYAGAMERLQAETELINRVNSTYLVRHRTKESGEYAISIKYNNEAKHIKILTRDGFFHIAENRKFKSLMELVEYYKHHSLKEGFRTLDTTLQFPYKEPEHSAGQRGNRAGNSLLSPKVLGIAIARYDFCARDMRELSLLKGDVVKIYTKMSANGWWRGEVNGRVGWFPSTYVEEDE

NALM-1 cells = assay: Survival of NALM-1 cells; type: cell-based, human; conditions: read-out: EC50, cell survival
Excerpt: Ba/F3 cells are bone marrow-derived, IL-3 dependent, murine pro-B cells widely used in studying the mechanism of leukemia initiation and progression and targeted therapy discovery^1. NALM-1 are human lymphoblastic cells that express p190-BCR-ABL1 but not Ikaros (IKZF1)^2. Applicant treated Ba/F3 cells transduced with retrovirus encoding either p190- or p210-BCR-ABL1 or Mieg3 empty vector^3 control as before.
MDA-MB-231 cells were maintained in IMEM (Invitrogen) supplemented with 10% FBS, 1% penicillin/streptomycin, and 1% amphotericin B. Ba/F3 cells were cultured in RPMI (GIBCO) supplemented with 10% FBS and IL-3 (10 ng/ml), NALM-1 cells were maintained in RPMI supplemented with 15% FBS. HEK293T cells were maintained with DMEM supplemented with 10% FBS and 1% penicillin/streptomycin. All cell lines were cultured at 37° C. in a 5% CO2 humidified incubator. Cell viability was assessed by trypan blue exclusion assay as previously described^4. Cytokines were from Peprotech.

[6] = system: JNK, PAK1, AKT, STAT3 phosphorylation; assay: Phospho-flow cytometry of BM cells from treated wild-type leukemic mice; type: in vivo; conditions: BM cells from one-week treated mice
Excerpt: N=5 mice per treatment group.
To test this hypothesis, Applicant studied by phospho-flow cytometry the activity of several effectors in BM cells from one-week treated mice.

p190-BCR-ABL1, sequence (P00519 with tags, fused parts or gaps): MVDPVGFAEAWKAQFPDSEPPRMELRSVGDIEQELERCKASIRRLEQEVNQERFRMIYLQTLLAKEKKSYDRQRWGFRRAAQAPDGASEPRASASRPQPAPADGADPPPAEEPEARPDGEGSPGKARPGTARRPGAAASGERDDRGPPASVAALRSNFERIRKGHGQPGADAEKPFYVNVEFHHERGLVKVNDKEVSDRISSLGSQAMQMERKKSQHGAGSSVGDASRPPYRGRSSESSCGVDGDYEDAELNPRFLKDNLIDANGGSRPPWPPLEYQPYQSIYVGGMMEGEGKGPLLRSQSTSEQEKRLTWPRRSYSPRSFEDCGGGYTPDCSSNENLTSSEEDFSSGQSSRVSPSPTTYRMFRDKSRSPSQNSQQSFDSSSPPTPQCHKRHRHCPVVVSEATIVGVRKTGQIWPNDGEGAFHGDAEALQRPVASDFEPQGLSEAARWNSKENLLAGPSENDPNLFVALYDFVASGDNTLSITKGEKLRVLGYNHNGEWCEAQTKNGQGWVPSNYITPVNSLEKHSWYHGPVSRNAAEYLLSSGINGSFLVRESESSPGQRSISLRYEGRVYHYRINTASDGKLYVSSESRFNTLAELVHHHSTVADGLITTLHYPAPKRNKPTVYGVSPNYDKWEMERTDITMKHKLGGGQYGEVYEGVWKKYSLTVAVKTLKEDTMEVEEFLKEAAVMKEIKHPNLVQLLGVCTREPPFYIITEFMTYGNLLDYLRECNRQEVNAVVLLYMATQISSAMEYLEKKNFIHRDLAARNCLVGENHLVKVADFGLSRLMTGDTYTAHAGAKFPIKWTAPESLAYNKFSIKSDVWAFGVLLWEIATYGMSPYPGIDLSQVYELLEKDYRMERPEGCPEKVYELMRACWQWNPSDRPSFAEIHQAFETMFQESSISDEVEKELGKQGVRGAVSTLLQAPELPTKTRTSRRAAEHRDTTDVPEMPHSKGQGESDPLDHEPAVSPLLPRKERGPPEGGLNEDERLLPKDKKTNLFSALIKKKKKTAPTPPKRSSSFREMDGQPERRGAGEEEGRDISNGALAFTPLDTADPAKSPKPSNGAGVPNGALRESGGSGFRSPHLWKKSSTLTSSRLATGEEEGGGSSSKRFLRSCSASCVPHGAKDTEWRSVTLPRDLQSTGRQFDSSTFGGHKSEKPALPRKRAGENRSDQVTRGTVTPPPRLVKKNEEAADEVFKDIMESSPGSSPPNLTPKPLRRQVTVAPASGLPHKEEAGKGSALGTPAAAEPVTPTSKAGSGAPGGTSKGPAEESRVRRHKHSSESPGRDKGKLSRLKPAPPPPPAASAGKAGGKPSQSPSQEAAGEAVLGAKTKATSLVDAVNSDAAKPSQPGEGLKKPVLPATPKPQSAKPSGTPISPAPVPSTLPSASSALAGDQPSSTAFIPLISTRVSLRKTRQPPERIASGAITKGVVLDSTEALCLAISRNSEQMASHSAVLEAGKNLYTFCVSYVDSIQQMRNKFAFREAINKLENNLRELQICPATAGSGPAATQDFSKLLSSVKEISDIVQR

OC1(c2ccccc2)NC(=Nc2nc3ccccc3[nH]2)N=C1c1ccccn1 (centres unmarked) [IODVA1]
effect on RhoA activation (RhoA): not at all; also recorded: no effect
EGFP+/B220+ leukemic B-cells in peripheral blood [1]: 4.2±0.7%
phosphorylation level of p190-BCR-ABL1 (p190-BCR-ABL1): did not affect
BAD S136 phosphorylation [2]: decreased BAD S136 phosphorylation beyond the 15 min time point
phosphorylation of PAK1/2 T423/T402 [2]: decreases sharply beyond the 5 min treatment time
sensitivity to IODVA1, cell cycle and colony formation [3]: did not re-sensitize; also recorded: less sensitive
pVAV1 levels ([4]; any of the patient samples tested): unchanged
decrease of levels of pVAV3 ([4]; IODVA1-sensitive PDX cells): 90%
inhibitory activity in vitro against kinases [5]: no inhibitory activity
Kd (VAV3): 512 nM and 270 to 980 nM
EC50 (NALM-1 cells; Homo sapiens): 680 nM
EC50 (NALM-1 cells): 677 nM
phosphorylation levels of JNK and PAK1 [6]: severely reduced
phosphorylation levels of AKT and STAT3 ([6]; wild-type leukemia): unaffected
